Patent publication US20080286373A1, “Ziprasidone formulations” (priority 2007, published 2008)
Where a name gives a salt, the structure may show the parent alone.

Assays:
[1] = Solubility of ziprasidone hydrochloride monohydrate in excipients (Table 2); format: physicochemical
Procedure: Solubility in various excipients that are frequently used to improve solubility was also tested and the results thereof are in Table 2 below.

[2] = Solubility of ziprasidone hydrochloride monohydrate in various solvents (Table 1); format: physicochemical
[3] = Within 45 minutes; pH 7.5, 900 ml aqueous monobasic sodium phosphate with 2w/v % Na dodecyl sulfate, USP 2 paddles 75 rpm; formulation of U.S. Pat. No. 6,150,366, mean particle size <85 microns; cited from earlier work

O=C1Cc2cc(CCN3CCN(c4nsc5ccccc45)CC3)c(Cl)cc2N1 [Ziprasidone HCl monohydrate, ziprasidone hydrochloride monohydrate]
solubility ([1]; 0.1 N HCl solution, simulated gastric fluid): 500 µg/mL
solubility ([1]; 5% caprolactam in water, aqueous with cosolvent or surfactant or cyclodextrin, 5% caprolactam in solution in water): 300 µg/mL
solubility ([1]; 20% Lactic acid in PEG 400, organic solvent or mixture): 1300 µg/mL
solubility ([1]; 20% Lutrol in TPGS, organic solvent or mixture): 1000 µg/mL
solubility ([1]; Benzyl alcohol, organic solvent or mixture): 2900 µg/mL
solubility ([1]; Benzyl benzoate, organic solvent or mixture): 300 µg/mL
solubility ([1]; Ethanol, organic solvent or mixture): 400 µg/mL
solubility ([1]; Gelucire 44/14, oil or lipid): 1000 µg/mL
solubility ([1]; Gelucire 50/13, oil or lipid): 1000 µg/mL
solubility ([1]; Glacial acetic acid, organic solvent or mixture): 2800 µg/mL
solubility ([1]; Glycerol, organic solvent or mixture): 1250 µg/mL
solubility ([1]; Labrofac (Capric triglyceride PEG-4 ester), oil or lipid): 900 µg/mL
solubility ([1]; Lactic acid (85% strength), organic solvent or mixture): 10000 µg/mL
solubility ([1]; Maisine 35-1 (glycerol monolinoleate), oil or lipid): 1000 µg/mL
solubility ([1]; N-methyl 2-pyrrolidone, organic solvent or mixture): 10000 µg/mL
solubility ([1]; PEG 400, organic solvent or mixture): 2500 µg/mL
solubility ([1]; PEG 6000, organic solvent or mixture): 2500 µg/mL
solubility ([1]; Peceol (glycerol monooleate 40), oil or lipid): 1000 µg/mL
solubility ([1]; Propylene glycol, organic solvent or mixture): 2000 µg/mL
solubility ([1]; Span 80, organic solvent or mixture): 500 µg/mL
solubility ([1]; Tween 20, organic solvent or mixture): 3000 µg/mL
solubility ([1]; Tween 80, organic solvent or mixture): 2100 µg/mL
solubility ([1]; Water): 30 µg/mL
solubility ([1]; aqueous buffer, Phosphate buffer pH 6.8 (without SLS)): < 10 µg/mL
solubility ([2]; solvent ACN): <1%
solubility ([2]; solvent Acetone): <1%
solubility ([2]; solvent Acetone/water): <1%
solubility ([2]; solvent DCM): <1%
solubility ([2]; solvent DMF/DMA/DMSO): 1.5%
solubility ([2]; solvent DMF/water 80/20): <1%
solubility ([2]; solvent Ethanol): <1%
solubility ([2]; solvent Isopropanol): <1%
solubility ([2]; solvent Methanol): 1.5%
solubility ([2]; solvent Methanol/acetic acid 90/10): <1%
solubility ([2]; solvent Methanol/water 60/40): <1%
solubility ([2]; solvent Methanol/water 80/20): 1.5%
solubility ([2]; solvent THF): <1%

Ziprasidone
ziprasidone dissolved [3]: 70%
